# Patent US20150285817A1 (priority 2014, published 2015)
# Like-named read-outs stand apart in the source and are kept apart here.
# Tested on: NSCLC patients
# Settings: VeriStrat poor patients, SCR samples
# Excerpt: Briefly, by way of overview, 188 patients were enrolled in the study. Key entry criteria for the study were Stage III/IV NSCLC, treatment-naïve, adenocarcinoma histology, with the patients selected from an Asian population and being either non-smokers or light former smokers. Stratification of the population was based on Eastern Cooperative Oncology Group Performance Status (ECOG PS), smoking history, and gender.
# In summary, we obtained pre-treatment serum samples from all 188 patients enrolled in the study described above. The samples were blinded and subject to MALDI-TOF mass-spectrometry. The resulting mass spectra were subject to predefined pre-processing steps, described below, and integrated intensity values at pre-defined m/z positions ranges, (i.e., feature values) in the pre-processed spectra were obtained. […]
# The pre-treatment serum samples used in the foregoing analysis were largely derived from patient blood samples originally drawn immediately prior to drug dosing (hereafter called “C1D1” samples) in order to define baselines for drug pharmacokinetics and pharmacodynamics. Subsequently, a set of blood samples was analyzed, these being derived from blood draws taken from 1-12 days (median 4.4 days) prior to drug dosing (hereafter called “SCR” samples) for purposes of establishing patient eligibility for study with respect to blood chemistries.
compound,measurement,setting,value
COc1cc2ncnc(Nc3ccc(F)c(Cl)c3)c2cc1OCCCN1CCOCC1 [gefitinib],median PFS,EGFR SM+ population,4.1 months
same,median PFS,ITT population,2.7 months
